From patent US20250073177A1, “LIPID NANOPARTICLES FOR OLIGONUCLEOTIDE DELIVERY” (ZIPHIUS NV, priority 2021, published 2025)

What was measured:
[1] = LNP particle size, polydispersity index and charge by Zeta Sizer; format: physicochemical; conditions: LNP lipid:DOPE:Cholesterol:DMG-PEG 35:20:43.5:1.5, N/P about 40/1, firefly luciferase saRNA
Procedure: Cationic lipids, DOPE, Cholesterol and DMG-PEG lipid were solubilized in ethanol or DMSO at a molar ratio of 35:20:43.5:1.5 and a concentration of 100:25:20:25 μg/μL for C12-200 or 170:25:20:25 μg/μL for the comparator lipids. Lipid nanoparticles (LNP) were prepared by targeting an N/P ratio of approximately 40/1 with saRNA. Briefly, the firefly luciferase saRNA of approximately 9659 nucleotides was diluted to 0.5 mg/mL in 5 mM citrate buffer, pH 4.5. Microfluidic mixer (Ignite from Precision Nanosystems, California, USA) was used to mix the lipid solution with the saRNA aqueous solution at a ratio of about 1:3 (vol/vol) with total flow rates above 10 ml/min. The ethanol was then removed, and the external buffer replaced with 10 mM TRIS-HCL, PH 7.4, by dialysis. Finally, the lipid nanoparticles were filtered through a 0.2 μm pore sterile filter. Lipid nanoparticle particle size was 50-150 nm diameter and polydispersity index (PI) of 0.1-0.4 as determined by Zeta Sizer (Malvern Panalytical, UK). The charge of the formulation was also measured by Zeta Sizer and ranged between 20 to −20 mV.

[2] = Body weight of mice after injection of LNP-formulated luciferase saRNA; format: in vivo; conditions: 1 μg luciferase saRNA in LNP
Procedure: (§1) Female SWISS mice (6 weeks old) were purchased from Janvier Laboratories (Paris, France) and kept in individually ventilated cages with access to food and water ad libitum. Mice were anesthetized with isoflurane (Zoetis, Louvain-La-Neuve, Belgium) (5% for induction and 2% for maintenance) and intramuscularly injected with a total of 1 μg in 100 μL Tris-HCL (50 μL per leg) LNP-formulated luciferase saRNA (for each group n=7). The expression of the luciferase induced bioluminescence was measured via non-invasive In vivo bioluminescent imaging (In vivo Imaging System (IVIS) Lumina III, Perkin Elmer, Waltham, Massachusetts, USA), 10 minutes after subcutaneous injection of 200 μL of D-luciferin (GoldBio, Saint Louis, Missouri, USA, #LUCK-1G) were measured in day 0 (before injection), day 1, day 3, day 5, day 7, day 10, day 15 and day 20.
See Tables 4 and FIG. 1 for the results showing higher expression of the saRNA compared to prior art compounds at day 15 onwards when administered in LNPs comprising compounds of the invention. Table 5 supports good tolerability of the compounds of the invention.

[3] = saRNA encapsulation in LNP, Quant-IT RiboGreen assay; format: physicochemical; conditions: LNP with firefly luciferase saRNA, RiboGreen with or without Triton X-100
Procedure: The saRNA loading in LNP formulations was quantified using a Quant-IT RiboGreen assay (Thermo Fisher Scientific, Waltham, Massachusetts, USA) as previously described. 14 samples were diluted tenfold in 1×Tris HCL-EDTA (TE) buffer (10 mM Tris-HCL, 1 mM EDTA, pH 7.5) with or without 2% (v/v) Triton X-100 (Sigma-Aldrich, Saint Louis, Missouri, USA). Standard solutions were also prepared in 1×TE with or without 2% (v/v) Triton X-100 to account for any variation in fluorescence. The assay was performed according to the manufacturer's protocol. Samples were loaded on a black 96-well plate and analysed for fluorescence on a microplate reader (Tecan Infinite® 200 PRO) at an excitation of 485 nm and emission at 528 nm. Encapsulation efficiency was calculated between 80-100%. See Table 3 below for the results obtained.

Female SWISS mice = assay: In vivo bioluminescent imaging of LNP-formulated luciferase saRNA expression; conditions: 1 μg luciferase saRNA in LNP
Procedure: as §1

[4] = Day 0 (before injection), intramuscular

Compound	Polydispersity Index (PI) [1]	Z-average [1]	Zetapotential [1]	Weight [2, 4]	Weight ([2]; Day 1, intramuscular)	Weight ([2]; Day 3, intramuscular)	Weight ([2]; Day 5, intramuscular)	Weight ([2]; Day 7, intramuscular)	Weight ([2]; Day 10, intramuscular)	Weight ([2]; Day 15, intramuscular)	Weight ([2]; Day 20, intramuscular)	Encapsulation [3]	Bioluminescence expression of LNPs (Female SWISS mice; [4])	Bioluminescence expression of LNPs (Female SWISS mice; Day 1, intramuscular)	Bioluminescence expression of LNPs (Female SWISS mice; Day 3, intramuscular)	Bioluminescence expression of LNPs (Female SWISS mice; Day 5, intramuscular)	Bioluminescence expression of LNPs (Female SWISS mice; Day 7, intramuscular)	Bioluminescence expression of LNPs (Female SWISS mice; Day 10, intramuscular)	Bioluminescence expression of LNPs (Female SWISS mice; Day 15, intramuscular)	Bioluminescence expression of LNPs (Female SWISS mice; Day 20, intramuscular)
CCCCCCCCCCCCCCOC(=O)CCN(CCC(=O)OCCCCCCCCCCCCCC)CCN1CCN(CCN(CCC(=O)OCCCCCCCCCCCCCC)CCC(=O)OCCCCCCCCCCCCCC)CC1 [Comparator 1, reference compound]	0.16	70.96 nm	9.07 mV	26.56 g	25.99 g	27.21 g	27.59 g	27.09 g	27.17 g	29.43 g	30.11 g	99.03%								
CCCCCCC(CCCC)C(=O)NCCN1CCN(CCN(CCCCOC(=O)C(CCCC)CCCCCC)CCCCOC(=O)C(CCCC)CCCCCC)CC1 (stereo not shown) [Compound 8-27, ((2-(4-(2-(2-butyloctanamido)ethyl)piperazin-1-yl)ethyl)azanediyl)bis(butane-4,1-diyl) bis(2-butyloctanoate)]	0.16	85.72 nm	−12.65 mV	27.07 g	26.01 g	27.57 g	28.86 g	28.40 g	28.67 g	29.44 g	30.57 g	98.64%	8.55E+04	1.40E+08	9.90E+08	7.71E+08	2.35E+08	6.86E+06	7.44E+05	8.29E+05
CCCCCCC(CCCC)C(=O)OCCCCN(CCCCOC(=O)C(CCCC)CCCCCC)CCN1CCN(CCOC(=O)C(CCCC)CCCCCC)CC1 (stereo not shown) [Compound 8-41, ((2-(4-(2-((2-butyloctanoyl)oxy)ethyl)piperazin-1-yl)ethyl)azanediyl)bis(butane-4,1-diyl) bis(2-butyloctanoate)]	0.23	81.44 nm	−20.01 mV	28.03 g	27.31 g	28.49 g	29.04 g	28.69 g	29.24 g	30.24 g	31.19 g	99.04%	5.33E+04	5.42E+07	7.43E+08	6.54E+08	4.67E+08	9.17E+06	1.88E+06	1.88E+06
CCCCCCCCCCC(O)CN(CCN1CCN(CCN(CC(O)CCCCCCCCCC)CC(O)CCCCCCCCCC)CC1)CCN(CC(O)CCCCCCCCCC)CC(O)CCCCCCCCCC (stereo not shown) [Compound C12-200, 1,1′-((2-(4-(2-((2-(bis (2-hydroxydodecyl)amino)ethyl) (2-hydroxydodecyl)amino)ethyl)piperazin-1-yl)ethyl)azanediyl)bis (dodecan-2-ol), reference compound]	0.10	81.42 nm	2.78 mV	28.61 g	27.17 g	28.62 g	28.98 g	28.97 g	29.23 g	30.16 g	31.23 g	100.49%								
